{"source": "patent US20240011027A1", "about": "“METHODS AND COMPOSITIONS FOR RESTORING STMN2 LEVELS” (President and Fellows of Harvard College, priority 2020, published 2024)", "assay_type_in_all_cases": "cell-based, human", "key": {"[1]": {"tested_on": "STMN2 transcript", "test": "qRT-PCR of truncated (cryptic) and full-length STMN2 RNA in patient's motor neurons treated with siTARDBP and ASOs", "conditions": "for STMN2 in TDP-43 depleted neurons: FIG. 93; for cry STMN2 in TDP-43 depleted neurons: FIG. 94; for cryptic STMN2 RNA levels (cryptic splicing) / full-length STMN2 RNA levels: patient's motor neurons treated with siTARDBP, ASO 30 nM to 0.03 nM, qRT-PCR normalized using RNA18S5, relative to NTC", "procedure": "In total, 51 ASOs were screened in the patient's motor neurons for their ability to (1) suppress the generation of truncated STMN2 transcript as well as (2) restore the full-length STMN2 transcript.\nIn the first experiment the patient's motor neurons were treated with siTARDBP, the patient's motor neurons were then cultured with the various ASOs over a range of concentrations (ranging from 30 nM to 0.03 nM) before extracting total RNA. Extracted RNA was used to synthesize cDNA by reverse transcription. qRT-PCR was used to assess levels for both truncated and full-length STMN2 RNAs normalized using RNA18S5 expression."}, "[2]": {"tested_on": "STMN2 protein", "test": "immunoblot of STMN2 protein levels in patient's motor neurons following reduction of TDP-43 by siRNA", "conditions": "patient's motor neurons after TDP-43 reduction by siRNA; compared to NTC / siRNA controls", "procedure": "For analysis of TDP-43 and STMN2 protein expression levels, d10 MNs were lysed in RIPA buffer (150 mM Sodium Chloride; 1% Triton X-100; 0.5% sodium deoxycholate; 0.1% SDS; 50 mM Tris pH 8.0) containing protease and phosphatase inhibitors (Roche) for 20 min on ice, and centrifuged at high speed. 200 μL of RIPA buffer per well of 24-well culture were routinely used, which yielded ˜20 μg of total protein as determined by BCA (Thermo Scientific). After two washes with RIPA buffer, insoluble pellets were resuspended in 200 μl of UREA buffer (Bio-Rad). For immunoblot assays 2-3 μg of total protein were separated by SDS-PAGE (BioRad), transferred to PDVF membranes (BioRad) and probed with antibodies against TDP-43 (1:1000, ProteinTech Group), GAPDH (1:1000, Millipore) and STMN2 (1:3000, Novus). Insoluble pellets were loaded based on protein concentration of correspondent RIPA-soluble counterparts. The same PDVF membrane was immunoassayed 2-3 times using Restore™ PLUS Western Blot Stripping Buffer (Thermo Scientific). GAPDH levels were used to normalized each sample, and LiCor software was used to quantitate protein band signal.\nAfter establishing and validating that the STMN2 ASOs could affect transcript levels, it was sought to determine if they could also rescue diminished protein levels observed after TDP-43 reduction. The patient's motor neurons were treated with siRNAs and either a nontargeting ASO (NTC) or one of the lead compounds from the screen (FIG. 90, FIG. 97). […] Unlike the cells treated with the non-targeting control ASO (NTC), restoration of STMN2 to the levels of the siRNA controls for the lead candidates was observed."}, "[3]": {"tested_on": "STMN2 RNA", "test": "qRT-PCR of full-length STMN2 after proteasome inhibition with MG-132 in patient's motor neurons", "conditions": "patient's motor neurons; MG-132 (1 uM)", "from_the_text": "It was established that ASO (SJ+94) and ASO (SJ-1) suppressed cryptic splicing of STMN2 and restored full length STMN2 RNA in the patient's motor neurons when there is a reduction in nuclear TDP-43. […] Post-mortem tissue studies have shown that TDP-43 mis-localization and its aggregation in cytoplasm is a hallmark of sporadic ALS. Several groups have reported cytoplasmic aggregation of TDP-43 akin to that observed in post-mortem tissue of sporadic ALS patients occurs in response to pharmacological inhibition of the proteasome (1, 4)."}, "[4]": {"tested_on": "patient's motor neurons", "test": "axonal regrowth after axotomy in microfluidic devices, TDP-43 depleted patient's motor neurons", "conditions": "for neurite outgrowth deficits following TDP-43 depletion: FIG. 92; for axon extension from the microchannel (regrowth after injury), mean values / axonal regrowth after injury relative to the non-targeting control ASO: patient's motor neurons treated with siTARDBP, 18 hours after axotomy", "procedure": "Sorted motor neurons were cultured in standard neuron microfluidic devices (SND150, XONA Microfluidics) mounted on glass coverslips coated with 0.1 mg/ml poly-D-lysine (Sigma-Aldrich) and 5 μg/ml laminin (Invitrogen) at a concentration of around 250,000 neurons/device. Axotomy was performed at day 7 of culture by repeated vacuum aspiration and reperfusion of the axon chamber until axons were cut effectively without disturbing cell bodies in the soma compartment.\nTo test if ASO SJ+94 could rescue axonal regrowth after TDP-43 depletion and injury, the patient's motor neurons were cultured in microfluidic devices that permitted axon growth into a chamber distinct from the neuronal cell bodies (FIG. 91A). Neurons cultured for 7 days in the soma compartment of the device extended axons through the microchannels into the axon chamber. Neurons were treated with siTARDBP and ASO SJ+94 before severing axons without disturbing cell bodies in the soma compartment. The axon extension was then measured from the microchannel to assess regrowth after injury (FIG. 91B, FIG. 91D)."}, "[5]": {"tested_on": "STMN2", "test": "STMN2 multiplexed qPCR assay in neurons after TDP-43 reduction by ASO or siRNA", "conditions": "compared with SCR ASO", "from_the_text": "FIGS. 17A-17C show RNA can be readily collected from CSF-derived exosomes and then converted into cDNA to assay for full and cryptic STMN2 transcripts as well as control RNAs for normalization (FIG. 17A). […] STMN2 transcripts are normalized to the house keeping ribosomal subunit RNA18S5. TDP-43 levels were reduced in cultured human neurons using either an antisense oligonucleotide (ASO) to deplete cells of TDP-43 or an siRNAs to induce TDP-43 knockdown. […] Using the validated multiplexed qPCR assay, next RNA was isolated from CSF-derived exosomes using 300 ul patient samples to determine the levels of cryptic STMN2 (n=7 healthy controls, n=2 disease mimics and n=9 ALS patients). […] Note that even in this modest set of samples that the increase in cryptic exon expression in ALS patients was highly significant (P<0.005). […] Finally, there is an interesting “texture” to the patient data with some patients showing high levels of expression and others more normal levels. It is hypothesized that patients with lower levels may either be earlier in their disease or have non-TDP-43 disease."}, "[6]": {"tested_on": "STMN2 cryptic exon", "test": "RT-PCR detection of transcripts containing the STMN2 cryptic exon in hMNs treated with proteasome inhibitors", "protocol": "It was then asked if cryptic exon inclusion could be contributing to decreased STMN2 levels in hMNs after proteasome inhibition. To accomplish this goal, an RT-PCR assay was developed to detect transcripts containing the cryptic exon (FIG. 5F). […] Total RNA was isolated from neurons using RNeasy Mini Kit (Qiagen) according to manufacturer's instructions. A total of 300-1000 ng of total RNA was used to synthesize cDNA by reverse transcription according to the iSCRIPT kit (Bio-rad). RT-PCR was then performed using one cryptic exon-specific primer and then analyzed using the Agilent 2200 Tapestation."}, "[7]": {"tested_on": "hMNs", "test": "neurite outgrowth, Sholl analysis of hMNs", "conditions": "10 μM; STMN2+/+ and STMN2−/− hMNs", "procedure": "Given the reported role of STMN2 in regulating axonal growth by promoting the dynamic instability of microtubules (77), phenotypic assays were carried out characterizing neurite outgrowth in the STMN2−/− hMNs. After 7 days in culture, sorted hMNs were fixed and stained for β-III-tubulin to label the neuronal processes (FIG. 4E).\nIndividual Tuj1-positive neurons used for Sholl analyses were randomly selected and imaged using a Nikon Eclipse TE300 with a 40× objective. The neurites were traced using the ImageJ (NIH) plugin NeuronJ (78), and Sholl analysis was performed using the Sholl tool of Fiji (96), quantifying the number of intersections at intervals from the cell body. Statistical analysis was performed by comparing the number of intersections of KO clones with the parental WT line for each 10 μm interval using Prism 6 (Graph Pad, La Jolla, CA, USA). Significance was assessed by a standard Student's t-test, with a p value of p<0.05 considered as significant."}}}
{"molecule": "SJ-1: antisense oligonucleotide AGGTCTTCTGCCGAGTC C, fully modified with MOE sugars and phosphorothioate linkages (antisense AGGTCTTCTGCCGAGTCC; all 2'-MOE, all phosphorothioate, methylation of C not given here)", "values": [{"measurement": "STMN2 in TDP-43 depleted neurons", "setting": "[1]", "value": "restored"}, {"measurement": "cry STMN2 in TDP-43 depleted neurons", "setting": "[1]", "value": "reduced"}, {"measurement": "cryptic STMN2 RNA levels (cryptic splicing)", "setting": "[1]", "value": "suppressing cryptic splicing"}, {"measurement": "full-length STMN2 RNA levels", "setting": "[1]", "value": "restoring full length STMN2 RNA"}, {"measurement": "STMN2 protein levels", "setting": "[2]", "value": "increase is significant"}, {"measurement": "full-length STMN2 RNA levels, higher than non-targeting control ASO (NTC)", "setting": "[3]", "value": 30, "unit": "%"}, {"measurement": "neurite outgrowth deficits following TDP-43 depletion", "setting": "[4]", "value": "rescued"}, {"measurement": "axon extension from the microchannel (regrowth after injury), mean values", "setting": "[4]", "value": 243, "unit": "um"}, {"measurement": "axonal regrowth after injury relative to the non-targeting control ASO", "setting": "[4]", "value": "significantly increased regrowth"}]}
{"molecule": "SJ+101: antisense oligonucleotide TTCACATTCATTTCTTCTTAG, fully modified with MOE sugars and phosphorothioate linkages (all 2'-MOE, all phosphorothioate, methylation of C not given here)", "values": [{"measurement": "STMN2 in TDP-43 depleted neurons", "setting": "[1]", "value": "restored"}, {"measurement": "cry STMN2 in TDP-43 depleted neurons", "setting": "[1]", "value": "reduced"}, {"measurement": "STMN2 protein levels", "setting": "[2]", "value": "increase is significant"}, {"measurement": "neurite outgrowth deficits following TDP-43 depletion", "setting": "[4]", "value": "rescued"}]}
{"molecule": "TDP-43 ASO: antisense oligonucleotide to deplete cells of TDP-43, AAGGCTTCATATTGTACTTT (chemistry not given here)", "values": [{"measurement": "relative expression of STMN2 (Exons 3-4)", "setting": "[5]", "value": "STMN2 reduction"}, {"measurement": "relative expression of cryptic STMN2", "setting": "[5]", "value": "cryptic exon induction"}]}
{"molecule": "CC(C)C[C@H](NC(=O)[C@H](Cc1ccccc1)NC(=O)c1cnccn1)B(O)O", "note": "[Bortezomib]", "values": [{"measurement": "transcripts containing the STMN2 cryptic exon (PCR assay)", "setting": "[6]", "value": "presence of transcripts containing the STMN2 cryptic exon"}]}
{"molecule": "NTC: non-targeting control ASO CCTATAGGACTATCCAGGAA (chemistry not given here) [reference compound]", "values": [{"measurement": "axon extension from the microchannel (regrowth after injury), mean values", "setting": "[4]", "value": 176, "unit": "um"}]}
{"molecule": "C[C@@H](N)[C@H]1CC[C@H](C(=O)Nc2ccncc2)CC1", "note": "[Y-27632]", "values": [{"measurement": "neurite outgrowth (Sholl analysis)", "setting": "[7]", "value": "enhancing the outgrowth of the STMN^+/+ line but not the STMN^−/− line"}]}
{"molecule": "SJ+94: antisense oligonucleotide CATTTCTTCTTAGGCAGGCT, fully modified with MOE sugars and phosphorothioate linkages (all 2'-MOE, all phosphorothioate, methylation of C not given here)", "values": [{"measurement": "STMN2 in TDP-43 depleted neurons", "setting": "[1]", "value": "restored"}, {"measurement": "cry STMN2 in TDP-43 depleted neurons", "setting": "[1]", "value": "reduced"}, {"measurement": "cryptic STMN2 RNA levels (cryptic splicing)", "setting": "[1]", "value": "suppress cryptic splicing"}, {"measurement": "full-length STMN2 RNA levels", "setting": "[1]", "value": "restore full length STMN2 RNA"}, {"measurement": "STMN2 protein levels", "setting": "[2]", "value": "increase is significant"}, {"measurement": "full length STMN2 RNA levels compared to non-targeting control ASO (NTC)", "setting": "[3]", "value": "significantly higher levels of full length STMN2 RNA"}, {"measurement": "neurite outgrowth deficits following TDP-43 depletion", "setting": "[4]", "value": "rescued"}, {"measurement": "axonal regrowth after injury relative to the non-targeting control ASO", "setting": "[4]", "value": "significantly increased regrowth"}]}
